Experimental data as given in ChEMBL document CHEMBL3813668, “Design, synthesis, and biological evaluation of anti-EV71 agents” (Bioorg Med Chem Lett, 2016).

Legend:
[1] = Metabolic stability in mouse plasma assessed as compound remaining after 2 hrs; type: ADME, cell-free; conditions: read-out: Stability
[2] = tested on: Enterovirus A71; assay: Antiviral activity against Enterovirus 71/Shenzhen/120F1/09 infected in human RD cells assessed as reduction in virus induced cell death after 72 hrs by CCK-8 assay; type: functional, organism-based; conditions: Enterovirus A, Shenzhen/120F1/09, RD
[3] = Volume of distribution in mouse at 2 mg/kg, iv; type: ADME, organism-based; conditions: in vivo
[4] = Clearance in mouse at 2 mg/kg, iv; type: ADME, organism-based; conditions: in vivo
[5] = AUC in mouse at 2 mg/kg, iv; type: ADME, organism-based; conditions: in vivo
[6] = Half life in mouse at 2 mg/kg, iv; type: ADME, organism-based; conditions: in vivo
[7] = AUC in mouse at 5 mg/kg, ip; type: ADME, organism-based; conditions: in vivo
[8] = Bioavailability in mouse at 5 mg/kg, ip; type: ADME, organism-based; conditions: in vivo
[9] = Cmax in mouse at 5 mg/kg, ip; type: ADME, organism-based; design: dose 5 mg/kg, route intraperitoneal; conditions: in vivo
[10] = Half life in mouse at 5 mg/kg, ip; type: ADME, organism-based; conditions: in vivo
[11] = tested on: rhinovirus B14; assay: Antiviral activity against HRV-14 infected in H1HeLa cells after 2 days by XTT assay; type: functional, organism-based; conditions: Rhinovirus B, H1-HeLa, 48 h

Compound | remaining at 2 h [1] [%] | EC50 [2] [nM] | also measured
Cc1cc(C(=O)N[C@H](C(=O)C[C@@H](Cc2ccc(F)cc2)C(=O)N[C@H](/C=C/C(=O)N2CCOCC2)C[C@@H]2CCNC2=O)C(C)C)no1 | 88 | 8920 | 
Cc1cc(C(=O)N[C@H](C(=O)C[C@@H](Cc2ccc(F)cc2)C(=O)N[C@H](/C=C/S(=O)(=O)c2nccs2)C[C@@H]2CCNC2=O)C(C)C)no1 | 24 | 520 | 
CCOC(=O)/C=C/[C@H](C[C@@H]1CCNC1=O)NC(=O)[C@H](Cc1ccc(F)c(F)c1)n1ccc2ccn(-c3ccccn3)c2c1=O | 0.9 | > 100000 | 
O=C1OCC/C1=C\[C@H](C[C@@H]1CCNC1=O)NC(=O)[C@H](Cc1ccc(F)c(F)c1)n1ccc2cc(-c3ccccc3F)[nH]c2c1=O | 92 | 340 | Vd [3]: 8.8 L/kg; clearance [4]: 140 mL/min/kg; AUC [5]: 0.25 µM·h; half-life [6]: 75.6 min
CCOC(=O)/C=C/[C@H](C[C@@H]1CCNC1=O)NC(=O)[C@@H](CC(=O)[C@@H](NC(=O)c1cc(C)on1)C(C)C)Cc1ccc(F)cc1 [RUPINTRIVIR] | 2.7 | 9 | 
Cc1cc(C(=O)N[C@H](C(=O)C[C@@H](Cc2ccc(F)cc2)C(=O)N[C@H](/C=C2\CCOC2=O)C[C@@H]2CCNC2=O)C(C)C)no1 | 88 | 28 | AUC [7]: 1.28 µM·h; bioavailability [8]: 115%; Vd [3]: 1.6 L/kg; clearance [4]: 130 mL/min/kg; AUC [5]: 0.444 µM·h; half-life [6]: 12 min; Cmax [9]: 2570 nM; half-life [10]: 10.8 min
CCOC(=O)/C=C/[C@H](C[C@@H]1CCNC1=O)NC(=O)[C@H](Cc1ccc(F)c(F)c1)n1ccc2cc(Br)[nH]c2c1=O | 0.3 | 500 | 
O=C1OCC/C1=C\[C@H](C[C@@H]1CCNC1=O)NC(=O)[C@H](Cc1ccc(F)c(F)c1)n1ccc2cc(Br)[nH]c2c1=O | 77 | 2010 | 
CCOC(=O)/C=C/[C@H](C[C@@H]1CCNC1=O)NC(=O)[C@H](Cc1ccc(F)cc1)n1cccc(NC(=O)c2cc(C)on2)c1=O | 1.4 |  | EC50 [11]: 2 nM
CCOC(=O)/C=C/[C@H](C[C@@H]1CCNC1=O)NC(=O)[C@H](Cc1ccc(F)c(F)c1)n1ccc2cc(-c3ccccc3F)[nH]c2c1=O | 0 | 1020 | 
Cc1cc(C(=O)N[C@H](C(=O)C[C@@H](Cc2ccc(F)cc2)C(=O)N[C@H](/C=C/C(=O)N2CCC(F)(F)CC2)C[C@@H]2CCNC2=O)C(C)C)no1 | 63 | 1240 | 
CCOC(=O)/C=C/[C@H](C[C@@H]1CCNC1=O)NC(=O)[C@H](Cc1ccccc1)n1ccc2cc[nH]c2c1=O |  |  | EC50 [11]: 1270 nM
Cc1cc(C(=O)N[C@H](C(=O)C[C@@H](Cc2ccc(F)cc2)C(=O)N[C@H](/C=C/C(=O)N2CCCC2)C[C@@H]2CCNC2=O)C(C)C)no1 | 82 | 12000 | 
Cc1cc(C(=O)N[C@H](C(=O)C[C@@H](Cc2ccc(F)cc2)C(=O)N[C@H](/C=C/C(=O)N2CCc3cc(Cl)ccc32)C[C@@H]2CCNC2=O)C(C)C)no1 | 26 | 180 | 
O=C1OCC/C1=C\[C@H](C[C@@H]1CCNC1=O)NC(=O)[C@H](Cc1ccc(F)c(F)c1)n1ccc2cc[nH]c2c1=O | 80 | 13100 | 
CCOC(=O)/C=C/[C@H](C[C@@H]1CCNC1=O)NC(=O)[C@H](Cc1ccc(F)c(F)c1)n1ccc2cc[nH]c2c1=O | 1 | 3560 | 
CCOC(=O)/C=C/[C@H](C[C@@H]1CCNC1=O)NC(=O)[C@H](Cc1ccc(F)c(F)c1)n1ccc2ccn(Cc3ccccc3)c2c1=O |  | > 100000 | 
Cc1cc(C(=O)N[C@H](C(=O)C[C@@H](Cc2ccc(F)cc2)C(=O)N[C@H](/C=C2\CC(C)OC2=O)C[C@@H]2CCNC2=O)C(C)C)no1 (stereo not given in full) | 81 | 220 | 
Cc1cc(C(=O)N[C@H](C(=O)C[C@@H](Cc2ccc(F)cc2)C(=O)N[C@H](/C=C/C(=O)N2CCC(F)(F)C2)C[C@@H]2CCNC2=O)C(C)C)no1 | 54 | 760 | 
Cc1cc(C(=O)N[C@H](C(=O)C[C@@H](Cc2ccc(F)cc2)C(=O)N[C@H](/C=C/S(C)(=O)=O)C[C@@H]2CCNC2=O)C(C)C)no1 |  | 1510 | 
CCOC(=O)/C=C/[C@H](C[C@@H]1CCNC1=O)NC(=O)[C@H](Cc1ccc(F)c(F)c1)n1ccc2ccn(CC3CC3)c2c1=O |  | > 100000 | 
Cc1cc(C(=O)N[C@H](C(=O)C[C@@H](Cc2ccc(F)cc2)C(=O)N[C@H](/C=C/C(=O)OC2CCC2)C[C@@H]2CCNC2=O)C(C)C)no1 | 5.3 | 260 | 
CCOC(=O)/C=C/[C@H](C[C@@H]1CCNC1=O)NC(=O)[C@H](Cc1ccc(F)c(F)c1)n1ccc2ccn(C)c2c1=O |  | > 100000 | 
Cc1cc(C(=O)N[C@H](C(=O)C[C@@H](Cc2ccc(F)cc2)C(=O)N[C@H](/C=C/C(=O)OCc2ccccc2)C[C@@H]2CCNC2=O)C(C)C)no1 | 2.4 | 140 | 
